This is an account of results in US5744487A, “Prolineamide derivatives” (Mitsubishi Chemical Corporation, priority 1994, dated 1998).

The target of series [1] is T1, bovine thrombin (Bos taurus, UniProt P00735).
T1 construct: purchased Mochida Co., Ltd
The experiment in a line: Antithrombin activity: hydrolysis inhibition of synthetic substrate (S-2238). Format: biochemical. The method, then:
Determination of antithrombin activity
(i) The measuring method for hydrolysis inhibition of synthetic substrate (S-2238)
S-2238 (manufactured by Kabi Co.) is dissolved in a Tris hydrochloric acid buffer solution (pH: 8.3) to prepare a S-2238-0.4M Tris hydrochloric acid solution having a concentration of 80 μm. To 175 μl of the solution, an aqueous solution of a compound of the present invention (515 μl) is added. After incubating at 37° C. for one minute, 10 μl of a bovine thrombin solution (4.4 units/ml, manufactured by Mochida Co., Ltd.) is added. A hydrolysis reaction rate of the substrate is determined by measuring a change in absorbance of 405 nm at 37° C.

Another series deals with T2, bovine trypsin (Bos taurus, UniProt P00760).
T2 construct: purchased Sigma Co
T2 sequence (P00760 24-246): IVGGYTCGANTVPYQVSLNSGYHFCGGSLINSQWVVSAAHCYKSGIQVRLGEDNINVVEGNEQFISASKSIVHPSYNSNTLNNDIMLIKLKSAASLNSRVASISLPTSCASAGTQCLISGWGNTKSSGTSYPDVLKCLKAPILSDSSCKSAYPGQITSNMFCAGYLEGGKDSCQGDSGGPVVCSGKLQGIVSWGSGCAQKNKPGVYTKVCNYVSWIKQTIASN
The experiment in a line: Antitrypsin activity: hydrolysis inhibition of synthetic substrate (S-2222). The format is biochemical. The following applies: S-2222 substrate, pH 8.3, 37° C., absorbance 405 nm, read-out: Antitrypsin activity I50. The method, then:
Determination of Antitrypsin activity
(i) The measuring method for hydrolysis inhibition of synthetic substrate (S-2222)
S-2222 (manufactured by Kabi Co.) is dissolved in a Tris hydrochloric acid (pH: 8.3) to prepare a S-2222-0.4M Tris hydrochloric acid solution having a concentration of 400 μm. To the solution (175 μl), 515 μl of a solution of a compound of the present invention is added. After incubating at 37° C. for one minute, 10 μl of a bovine trypsin solution (1 to 2 mg/ml, manufactured by Sigma Co.) is added. A hydrolysis reaction rate of the substrate is determined by measuring a change in absorbance of 405 nm at 37° C.

Series [2] has as its target T1, bovine thrombin. The experiment in a line: Antithrombin activity: coagulation inhibition of rat plasma. The format is biochemical. As for the experimental part: (ii) The measuring method for coagulation inhibition of rat plasma The compound of the present invention is dissolved in water or saline to form a solution of a total volume of 0.1 ml. To the solution, 0.1 ml of rat plasma is added and the mixture is incubated at 37° C. for 30 seconds. Then, 0.1 ml of bovine thrombin (8 units/ml, Mochida Co., Ltd.) is added and the coagulation time is measured at 37° C. The concentration of the inhibitor (i.e., the compound of the present invention) which doubles the coagulation time that obtained in the absence of the inhibitor was determined as I50 (μm).

For series [3] the following is noted: J. Med. Chem., 33, 1729 (1990); cited from earlier work.

As for `CCOC(=O)N[C@H](CC(CC)CC)C(=O)N1CCC[C@H]1C(=O)NC[C@H]1CC[C@H](C(=N)N)CC1` [compound 22], the IC50 on bovine thrombin [1] is 0.014 µM; at bovine trypsin, 0.94 µM. As to `N=C(N)c1ccc(CNC(=O)[C@@H]2CCCN2C(=O)CCCc2ccccc2)cc1` [compound 13], the IC50 worked out at 0.72 µM against bovine thrombin [1] and 0.59 µM against bovine thrombin [2].

In the case of `NC(=NO)c1ccc(CNC(=O)[C@@H]2CCCN2C(=O)Cc2ccccc2)cc1` [compound 25], the IC50 against bovine thrombin [2] was > 300 µM.

The molecule `N[C@H](Cc1ccccc1)C(=O)N1CCC[C@H]1C(=O)NC[C@H]1CC[C@H](N)CC1` [compound 58] had an IC50 against bovine thrombin [2] of 0.097 µM. Consider `N[C@H]1CC[C@H](CNC(=O)[C@@H]2CCCN2C(=O)[C@H](CCC(=O)O)NS(=O)(=O)c2ccccc2)CC1` [compound 54], for which the IC50 against bovine thrombin [2] stood at 0.23 µM. As to `CS(=O)(=O)N[C@H](COc1ccccc1C(=O)OCc1ccccc1)C(=O)N1CCC[C@H]1C(=O)NCc1ccc(C(=N)N)cc1` [compound 10], the IC50 against bovine thrombin [2] is 0.17 µM. In the case of `CCOC(=O)N[C@H](CC(C)(C)C)C(=O)N1CCC[C@H]1C(=O)NC[C@H]1CC[C@H](N)CC1` [compound 64], the IC50 against bovine thrombin [2] stood at 0.13 µM.

`CC(C)(C)C[C@@H](NS(C)(=O)=O)C(=O)N1CCC[C@H]1C(=O)NCc1ccc(C(=N)N)cc1` [compound 2]: at bovine thrombin [2], the IC50 is 0.03 µM. Take `CS(=O)(=O)N[C@H](Cc1ccccc1)C(=O)N1CCC[C@H]1C(=O)NC[C@H]1CC[C@H](N)CC1` [compound 52]: the values for the IC50 at bovine thrombin [1], on bovine thrombin [2] and on bovine trypsin were 0.13 µM, 0.045 µM and 14 µM, respectively. Turning to `CCOC(=O)N[C@H](CC(C)(C)C)C(=O)N1CCC[C@H]1C(=O)NC[C@H]1CC[C@H](C(=N)N)CC1` [compound 15], the IC50 at bovine thrombin [1] amounted to 0.011 µM; on bovine thrombin [2], 0.038 µM; at bovine trypsin, 2.2 µM. `N[C@H]1CC[C@H](CNC(=O)[C@@H]2CCCN2C(=O)[C@H](O)C2CCCCC2)CC1` [compound 61] showed an IC50 against bovine thrombin [2] of 0.056 µM.

With `CS(=O)(=O)N[C@@H](C(=O)N1CCC[C@H]1C(=O)NCc1ccc(C(=N)N)cc1)C1CCCCC1` [compound 1], the IC50 against bovine thrombin [2] came to 0.046 µM. For the molecule `CS(=O)(=O)N[C@@H](C(=O)N1CCC[C@H]1C(=O)NC[C@H]1CC[C@H](N)CC1)C1CCCCC1` [compound 53], the IC50 against bovine thrombin [1] amounted to 0.081 µM; against bovine thrombin [2] it was 0.059 µM; on bovine trypsin it was 1.4 µM. On to `N=C(N)NCCC[C@@H](C=O)NC(=O)[C@@H]1CCCN1C(=O)[C@H](N)Cc1ccccc1` [D-phenylalanyl-L-prolyl-L-arginal], for which the “stability in the living body” value in series [3] was “fairly unstable”. On bovine thrombin [2], `N=C(N)c1ccc(CNC(=O)[C@@H]2CCCN2C(=O)[C@@H](Cc2ccccc2)NC=O)cc1` [compound 6] had an IC50 of 0.056 µM. `CC(C)OC(=O)N[C@H](CC(C)(C)C)C(=O)N1CCC[C@H]1C(=O)NC[C@H]1CC[C@H](C(=N)N)CC1` [compound 17]: the IC50 on bovine thrombin [1] worked out at 0.015 µM; on bovine thrombin [2], 0.053 µM; at bovine trypsin it was 3.2 µM.

Take `CS(=O)(=O)N[C@H](Cc1ccccc1)C(=O)N1CCC[C@H]1C(=O)NC[C@H]1CC[C@H](NC(=N)N)CC1` [compound 67]: the IC50 came out at 0.56 µM on bovine thrombin [1], 0.081 µM on bovine thrombin [2] and 20 µM on bovine trypsin. For the molecule `CS(=O)(=O)N[C@H](CC1CCCCC1)C(=O)N1CCC[C@H]1C(=O)NC[C@H]1CC[C@H](C(=N)N)CC1` [compound 20], the IC50 on bovine thrombin [2] was 0.028 µM. For `CCCCC[C@@H](NS(=O)(=O)CC(=O)O)C(=O)N1CCC[C@H]1C(=O)NCc1ccc(C(=N)N)cc1` [compound 12], the IC50 at bovine thrombin [2] is 0.083 µM. Same read-out and setting: with `N[C@H]1CC[C@H](CNC(=O)[C@@H]2CCCN2C(=O)[C@H](O)c2ccccc2)CC1` [compound 62] the figure was 0.088 µM. Take `CC(C)OC(=O)N[C@@H](C(=O)N1CCC[C@H]1C(=O)NC[C@H]1CC[C@H](C(=N)N)CC1)C1CCCCC1` [compound 21]: the IC50 on bovine thrombin [1] worked out at 0.021 µM; on bovine trypsin it was 1 µM. At bovine thrombin [2], `CS(=O)(=O)N[C@H](COc1cccc(C(=O)O)c1)C(=O)N1CCC[C@H]1C(=O)NCc1ccc(C(=N)N)cc1` [compound 9] displayed an IC50 of 0.11 µM. With `CC(C)C[C@@H](NS(C)(=O)=O)C(=O)N1CCC[C@H]1C(=O)NC[C@H]1CC[C@H](C(=N)N)CC1` [compound 19], on bovine thrombin [2], the IC50 turned out to be 0.031 µM. `CC(C)OC(=O)N[C@H](CC(C)(C)C)C(=O)N1CCC[C@H]1C(=O)NC[C@H]1CC[C@H](N)CC1` [compound 56]: the IC50 on bovine thrombin [1] came out at 0.13 µM; against bovine thrombin [2], 0.08 µM; on bovine trypsin it was 14 µM. On to `CCCC[C@@H](NS(C)(=O)=O)C(=O)N1CCC[C@H]1C(=O)NCc1ccc(C(=N)N)cc1` [compound 7], for which the IC50 against bovine thrombin [2] is 0.03 µM. `CS(=O)(=O)N[C@H](Cc1ccccc1)C(=O)N1CCC[C@H]1C(=O)NCc1ccc(C(=N)N)cc1` [compound 4]: the IC50 on bovine thrombin [1] was 0.0076 µM; against bovine thrombin [2], 0.021 µM; on bovine trypsin it was 0.04 µM. For the molecule `CSCC[C@@H](NS(C)(=O)=O)C(=O)N1CCC[C@H]1C(=O)NCc1ccc(C(=N)N)cc1` [compound 5], the IC50 at bovine thrombin [2] stood at 0.048 µM. Regarding `COC(=O)c1ccc(CC[C@@H](NS(C)(=O)=O)C(=O)N2CCC[C@H]2C(=O)NCc2ccc(C(=N)N)cc2)cc1` [compound 8], the IC50 against bovine thrombin [2] worked out at 0.122 µM. For `CC(C)(C)C[C@@H](NC(=O)OC(C)(C)C)C(=O)N1CCC[C@H]1C(=O)NC[C@H]1CC[C@H](C(=N)N)CC1` [compound 23], the figures for the IC50 on bovine thrombin [1], on bovine thrombin [2] and on bovine trypsin were 0.017 µM, 0.058 µM and 3.6 µM, respectively. Turning to `CCOC(=O)N[C@H](CC1CCCCC1)C(=O)N1CCC[C@H]1C(=O)NC[C@H]1CC[C@H](C(=N)N)CC1` [compound 16], the IC50 stood at 0.021 µM against bovine thrombin [1] and 1.7 µM on bovine trypsin. On bovine thrombin [2], `CCOC(=O)N[C@H](Cc1ccccc1)C(=O)N1CCC[C@H]1C(=O)NC[C@H]1CC[C@H](N)CC1` [compound 57] registered an IC50 of 0.082 µM.
